Data as given in patent US9227977B2, “Phosphoinositide 3-kinase inhibitors” (RESPIVERT LTD., priority 2013, dated 2016).
Where two headings read alike, the source gives them in different places.

Key:
[1] = system: poly-I:C-induced cell accumulation in mice airways; experiment: Poly-I:C-induced cell accumulation in mice; type: in vivo, mouse; conditions: for % inhibition, Macrophages in BALF / % inhibition, Neutrophils in BALF / Cell numbers in BALF, Macrophages / Cell numbers in BALF, Neutrophils: mice, poly I:C, intra-nasal; for Cell numbers in BALF, Macrophages / Cell numbers in BALF, Neutrophils: mean ± SEM
Experimental: Specific pathogen-free A/J mice (males, 5 weeks old) were dosed with poly (I:C)-LMW (1 mg/mL, 40 μL) (InvivoGen, San Diego, Calif., USA) intranasally twice daily for 3 days under anaesthasia (3% isoflurane). Test substances were dosed intra-nasally (50 μL in 10% DMSO/isotonic saline vehicle) 2 hr before each poly-I:C treatment. At 24 hr after the last poly-I:C challenge, animals were anesthetized, the trachea was cannulated and bronchial alveolar lavage (BAL) was obtained by instilling into and then withdrawing from the lungs, isotonic saline (100 mL/kg). Total cell numbers in the BALF samples were measured using a haemocytometer under a phase-contrast microscope.
The proportions of alveolar macrophages and neutrophils were determined by FACS analysis using anti-mouse MOMA2-FITC (macrophage) or anti-mouse 7/4-FITC (neutrophil). Cells were suspended in PBS and incubated with anti-MOMA2-FITC (2 μg/mL, Catalogue no SM065F, Acris Antibodies GmbH, Herford, Germany) or anti-7/4-FITC (2 μg/mL, Catalogue no CL050F, Acris Antibodies GmbH, Herford, Germany) for 30 min at 30° C., and then counterstained with propidium iodide (2 μg/mL) to allow exclusion of necrotic cells. The cells were washed with PBS, and transferred to FACS tubes. Samples was set in a flow cytometer (ALTRA II; Beckman Coulter Japan, Tokyo, Japan), and a single-parameter FL2 [PMT2] (FITC) histogram with log x-axis was plotted to illustrate relative intensity of FITC, Data files were stored for subsequent analysis using Kaluza analysis software (ver. 1.2) to calculate the proportion of each cell type.

[2] = molecular target: PI3K δ (Homo sapiens (Human), UniProt O00329); experiment: PI3K enzyme inhibition assay (HTRF TR-FRET); type: biochemical
Description: The PI3K enzymes catalyse the phosphorylation of phosphatidylinositol 4,5-biphosphate (PIP2) to phosphatidylinositol 3,4,5-triphosphate (PIP3) in the presence of ATP and Mg^2+ ions. The PIP3 product can be detected by displacement of biotin-PIP3 from energy transfer complexes consisting of europium labelled anti-GST monoclonal antibody, a GST-tagged Pleckstrin homology (PH) domain, biotinylated PIP3 and streptavidin-allophycocyanin (APC) by the time-resolved fluorescence resonance energy transfer (TR-FRET) (HTRF®PI3K enzyme assay, Millipore). Excitation, at 330 nm, of europium in the complex results in an energy transfer to the APC and a fluorescent emission at 665 nm although europium itself emits at its characteristic wavelength of 620 nm. The PIP3 product formed by PI3K activity displaces biotin-PIP3 from the complex and results in a loss of energy transfer (decreasing signal).
The compound to be tested was added, at the desired final concentrations, to a mixture of PIP2 substrate and a recombinant PI3K enzyme (either α, β or δ isoforms, ex Millipore, or γ isoform [p110γ+p101 construct], ex United States Biological, Swampscott, Mass.) and the mixture incubated for 2 hr at RT. […] A stopping solution containing biotinylated PIP3 and the detection mix containing the GST tagged GRP1 pleckstrin homology (PH) domain and fluorophores were then added and the mixture was incubated at RT for 15-18 hr, prior to detection in a fluorescence microplate reader (Synergy 4, BioTek UK, Bedfordshire, UK).
The results were calculated according to the formula: APC signal (emission at 665 nm)/europium signal (emission at 620 nm)×10^4.

[3] = system: LPS-induced airway neutrophilia in mice; experiment: LPS-induced airway neutrophil accumulation in mice; type: in vivo, mouse; conditions: i-t; for Neutrophil numbers in BALF: mean ± SEM
Experimental: Non-fasted BALB/c mice (6-8 weeks old) were dosed with vehicle or with test compound by intra-tracheal administration (dose volume 20 μL) at time points T=−2 hr, −8 hr, or −12 hr with respect to the start of LPS treatment. The LPS was prepared in a solution of 0.5 mg/mL and aerosolised using a De Vibliss ultrasonic nebuliser 2000 (7 mL during 30 min exposure). At eight hr after LPS challenge, the trachea was cannulated and bronchoalveolar lavage fluid (BALF) extracted by infusing and then withdrawing PBS (1 mL) into the lungs via the tracheal catheter. This procedure was repeated to give a yield of approximately 2 mL lavage fluid. Total cell numbers in the BALF samples were measured using a haemocytometer. Cytospin smears of the BALF samples were prepared by centrifugation at 1200 rpm for 2 min at RT and stained using a DiffQuik stain system (Dade Behring) for differential cell counts. Cells were counted using oil immersion microscopy. Data are expressed as neutrophil number of cells per mL of BALF (mean±S.E.M).

[4] = system: ovalbumin-induced airway eosinophilia and neutrophilia in mice; experiment: Ovalbumin-induced airway eosinophil and neutrophil accumulation in mice; type: in vivo, mouse; conditions: OVA-sensitized mice, i-t; for Cell numbers in BALF, Eosinophils / Cell numbers in BALF, Neutrophils: mean ± SEM
Experimental: BALB/c mice (6-8 weeks old) were immunized with OVA (10 μg/mouse i.p.) on days 0 and 7. In order to elicit a local inflammatory response in the lung, mice were repeatedly challenged between days 13-15 with a nebulised solution of ovalbumin (10 mg/mL, 30 min exposure, De Vilibiss Ultraneb 2000). On day 17 each animal received via intra-tracheal administration of either vehicle or test compound 2 hr prior to the final OVA challenge. Animals were anaesthetized 8 hr later before undergoing a tracheotomy. BAL was obtained by instilling PBS (1 mL) into the lungs, which was then withdrawn. This procedure was repeated to provide approximately 2 mL of lavage fluid. Total cell numbers in the BALF samples were measured using a haemocytometer. Cytospin smears of the BALF samples were prepared by centrifugation at 200 rpm for 5 min at RT and stained using a DiffQuik stain system (Dade Behring) for differential cell counts. Cells were counted using oil immersion microscopy. Data is expressed as differential number of cells per mL of […] (mean±S.E.M).

Sequence of PI3K δ (O00329 whole entry, species assumed): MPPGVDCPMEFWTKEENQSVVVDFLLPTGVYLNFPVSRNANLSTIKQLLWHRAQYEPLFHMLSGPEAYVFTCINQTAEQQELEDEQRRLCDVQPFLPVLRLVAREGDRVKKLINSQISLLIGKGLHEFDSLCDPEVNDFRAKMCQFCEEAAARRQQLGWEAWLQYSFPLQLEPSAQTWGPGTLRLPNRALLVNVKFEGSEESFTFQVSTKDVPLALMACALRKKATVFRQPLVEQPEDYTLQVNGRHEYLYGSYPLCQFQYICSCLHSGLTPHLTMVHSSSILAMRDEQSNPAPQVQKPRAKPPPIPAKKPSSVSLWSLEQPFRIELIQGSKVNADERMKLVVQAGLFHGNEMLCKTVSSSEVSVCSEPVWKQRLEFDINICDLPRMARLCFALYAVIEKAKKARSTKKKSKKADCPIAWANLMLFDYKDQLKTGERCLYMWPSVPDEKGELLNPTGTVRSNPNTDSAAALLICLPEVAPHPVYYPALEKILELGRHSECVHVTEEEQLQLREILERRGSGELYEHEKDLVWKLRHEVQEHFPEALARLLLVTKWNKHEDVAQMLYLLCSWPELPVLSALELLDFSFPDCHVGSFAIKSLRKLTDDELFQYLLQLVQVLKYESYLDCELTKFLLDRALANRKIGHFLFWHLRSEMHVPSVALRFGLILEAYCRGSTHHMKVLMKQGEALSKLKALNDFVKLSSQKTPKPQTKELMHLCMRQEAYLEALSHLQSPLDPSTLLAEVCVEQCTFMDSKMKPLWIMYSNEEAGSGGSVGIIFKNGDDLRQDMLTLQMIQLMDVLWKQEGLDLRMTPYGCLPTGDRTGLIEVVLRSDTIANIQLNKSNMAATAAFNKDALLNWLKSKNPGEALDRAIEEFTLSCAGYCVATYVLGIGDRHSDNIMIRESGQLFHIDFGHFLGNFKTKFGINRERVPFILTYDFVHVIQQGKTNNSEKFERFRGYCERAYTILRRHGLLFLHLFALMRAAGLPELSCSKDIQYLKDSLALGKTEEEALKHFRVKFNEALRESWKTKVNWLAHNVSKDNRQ
Sequence of PI3K δ (P27986 whole entry partner, species assumed): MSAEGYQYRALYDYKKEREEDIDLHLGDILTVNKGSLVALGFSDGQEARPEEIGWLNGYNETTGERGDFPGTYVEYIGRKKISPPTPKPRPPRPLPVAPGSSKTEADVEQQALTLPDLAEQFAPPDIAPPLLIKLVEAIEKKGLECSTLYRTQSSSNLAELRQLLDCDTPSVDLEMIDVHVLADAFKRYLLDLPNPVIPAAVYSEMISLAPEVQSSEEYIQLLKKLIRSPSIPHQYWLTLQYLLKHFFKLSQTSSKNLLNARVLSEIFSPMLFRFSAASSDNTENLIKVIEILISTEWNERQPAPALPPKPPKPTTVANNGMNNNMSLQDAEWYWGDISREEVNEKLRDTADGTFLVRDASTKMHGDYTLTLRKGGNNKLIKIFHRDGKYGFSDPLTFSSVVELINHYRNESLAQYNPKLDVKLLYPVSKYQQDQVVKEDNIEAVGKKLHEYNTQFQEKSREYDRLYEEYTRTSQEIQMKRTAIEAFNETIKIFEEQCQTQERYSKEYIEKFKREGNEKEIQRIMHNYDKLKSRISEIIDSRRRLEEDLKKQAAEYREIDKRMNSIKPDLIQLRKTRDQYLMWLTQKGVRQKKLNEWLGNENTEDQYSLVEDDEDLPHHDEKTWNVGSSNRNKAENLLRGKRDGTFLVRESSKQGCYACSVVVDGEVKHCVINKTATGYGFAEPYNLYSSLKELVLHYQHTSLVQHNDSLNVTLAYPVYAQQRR

Structure (SMILES): COCCOCCOCC#Cc1cccc2nc(Cn3nc(-c4cc(O)cc(F)c4)c4c(N)ncnc43)n(Cc3ccccc3C(F)(F)F)c(=O)c12 [Compound (I), 2-((4-Amino-3-(3-fluoro-5-hydroxyphenyl)-1H-pyrazolo[3,4-d]pyrimidin-1-yl)methyl)-5-(3-(2-(2-methoxyethoxy)ethoxy)prop-1-yn-1-yl)-3-(2-(trifluoromethyl)benzyl)quinazolin-4(3H)-one]
- potency versus compound A on poly-I:C-induced cell accumulation (in words) ([1]; direct comparison): significantly greater potency than compound A
- % inhibition, Macrophages in BALF ([1]; 0.002 mg/mL): 49%
- % inhibition, Neutrophils in BALF ([1]; 0.002 mg/mL): 43%
- Cell numbers in BALF, Macrophages ([1]; 0.002 mg/mL): 11.5 ± 0.2 x10^4/mL
- Cell numbers in BALF, Neutrophils ([1]; 0.002 mg/mL): 7.3 ± 0.3 x10^4/mL
- % inhibition, Macrophages in BALF ([1]; 0.02 mg/mL): 69%
- % inhibition, Neutrophils in BALF ([1]; 0.02 mg/mL): 65%
- Cell numbers in BALF, Macrophages ([1]; 0.02 mg/mL): 8.3 ± 0.3 x10^4/mL
- Cell numbers in BALF, Neutrophils ([1]; 0.02 mg/mL): 5.0 ± 0.2 x10^4/mL
- % inhibition, Macrophages in BALF ([1]; 0.2 mg/mL): 79%
- % inhibition, Neutrophils in BALF ([1]; 0.2 mg/mL): 77%
- Cell numbers in BALF, Macrophages ([1]; 0.2 mg/mL): 6.8 ± 0.3 x10^4/mL
- Cell numbers in BALF, Neutrophils ([1]; 0.2 mg/mL): 3.8 ± 0.2 x10^4/mL
- IC50 ([2]; read-out: IC50 Values for PI3K inhibition at isozyme indicated, PI3K δ): 2.5 nM
- IC50 ([2]; read-out: PI3 Kinase Inhibition IC50 value at state isozyme, δ): 2.5 nM
- % inhibition of neutrophil numbers in BALF ([3]; 0.05 mg/mL, pre-dose 2 hr): 19%
- Neutrophil numbers in BALF ([3]; 0.05 mg/mL, pre-dose 2 hr): 13.8 ± 2.5 x10^5/mL
- % inhibition of neutrophil numbers in BALF ([3]; 0.2 mg/mL, pre-dose 2 hr): 53%
- Neutrophil numbers in BALF ([3]; 0.2 mg/mL, pre-dose 2 hr): 8.0 ± 1.4 x10^5/mL
- % inhibition of neutrophil numbers in BALF ([3]; 0.2 mg/mL, pre-dose 8 hr): 45%
- Neutrophil numbers in BALF ([3]; 0.2 mg/mL, pre-dose 8 hr): 9.4 ± 2.0 x10^5/mL
- % inhibition of neutrophil numbers in BALF ([3]; 0.2 mg/mL, pre-dose 12 h): 23%
- Neutrophil numbers in BALF ([3]; 0.2 mg/mL, pre-dose 12 h): 13.1 ± 2.5 x10^5/mL
- % inhibition of neutrophil numbers in BALF ([3]; 1.0 mg/mL, pre-dose 2 hr): 68%
- Neutrophil numbers in BALF ([3]; 1.0 mg/mL, pre-dose 2 hr): 5.5 ± 0.9 x10^5/mL
- % inhibition, Eosinophils in BALF ([4]; 0.05 mg/mL): 20%
- % inhibition, Neutrophils in BALF ([4]; 0.05 mg/mL): 18%
- Cell numbers in BALF, Eosinophils ([4]; 0.05 mg/mL): 19.7 ± 3.2 x10^4/mL
- Cell numbers in BALF, Neutrophils ([4]; 0.05 mg/mL): 8.0 ± 0.4 x10^4/mL
- % inhibition, Eosinophils in BALF ([4]; 0.2 mg/mL): 85%
- % inhibition, Neutrophils in BALF ([4]; 0.2 mg/mL): 70%
- Cell numbers in BALF, Eosinophils ([4]; 0.2 mg/mL): 3.8 ± 0.9 x10^4/mL
- Cell numbers in BALF, Neutrophils ([4]; 0.2 mg/mL): 2.9 ± 0.5 x10^4/mL
- % inhibition, Eosinophils in BALF ([4]; 1 mg/mL): 91%
- % inhibition, Neutrophils in BALF ([4]; 1 mg/mL): 80%
- Cell numbers in BALF, Eosinophils ([4]; 1 mg/mL): 2.1 ± 0.4 x10^4/mL
- Cell numbers in BALF, Neutrophils ([4]; 1 mg/mL): 2.0 ± 0.3 x10^4/mL
